Measured values taken from PubChem BioAssay AID977629 (Broad Institute, 2014).
Results filed as inconclusive are left out. Activity calls are given as the source filed them.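 Rule for the calls: active = drop in red signal of normal-ribosome bacteria at least twice that in human-like-ribosome bacteria, growth inhibited under 30%; inactive = the rest, inconclusive results apart.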

Key:
[1] = growth inhibition of wild-type RFP versus h24-humanized GFP E. coli, dose response, h24 mutant GFP vs wild-type RFP, cherry-pick (AID 977629); conditions: E. coli WT-RFP / h24-humanized GFP mixed culture, 24 h; at 50 µM (top of the series)
[2] = system: E. coli WT-RFP / h24-humanized GFP mixed culture, 24 h; experiment: as above
[3] = measured here: h24 humanized mutant GFP signal
[4] = measured here: total growth OD600

Structure (SMILES)	activity change, negative = inhibition [1]	AC50 [2, 3] [µM]	AC50 [2, 4] [µM]	AC50 [2]
COc1ccc(Cn2c(-c3ccc(Cl)cc3)c[n+]3ccccc23)cc1	21 (inactive)			
Cc1ccc(C)c(NC(=O)CSc2nc3nc(-c4cccs4)cc(C(F)(F)F)c3c(=O)[nH]2)c1	52.6 (inactive)	31.6	20.1	
CCN(CC)CCn1c2ccccc2c2nc3ccc([N+](=O)[O-])cc3cc21	21.8 (inactive)	6.47	7.41	
COc1ccc(-n2cc(-c3ccccc3)c3c(N4CCOCC4)ncnc32)cc1	12.7 (inactive)		27.8	
Cc1noc(C)c1NC(=O)Nc1ccc2c(c1)C(=O)N([C@H](C)CO)C[C@@H](C)[C@@H](CN(C)C(=O)Nc1ccc3c(c1)OCO3)OCCCC[C@@H](C)O2	86.8 (inactive)			
COc1ccc2[nH]c3c(=O)n(CCCCC(=O)NCCC(C)C)c(=S)[nH]c3c2c1	64.3 (inactive)			
O=C(O)c1cc([N+](=O)[O-])ccc1NCc1ccccc1	-0.454 (inactive)	> 100	5.79	
C[C@@H]1CCCCO[C@H](CN(C)C(=O)CCCN(C)C)[C@H](C)CN([C@@H](C)CO)C(=O)c2cc(NC(=O)Nc3cccc4ccccc34)ccc2O1	101 (inactive)		> 100	
COC(=O)c1c(NC(=O)CCC(=O)O)sc(Cc2ccccc2)c1C			30	> 100 µM (inactive)
